Laboratory results: paper PMC12010937, “Evaluation of FXR Activity in Pollutants Identified in Sewage Sludge and Subsequent in Vitro and in Vivo Characterization of Metabolic Effects of Triphenyl Phosphate” (Environmental Health Perspectives, 2025)
Where “and” joins values, the source holds several entries; their conditions need not be identical. Identical values can stand only once.

Tests used:
[1] = tested on: C57BL/6N mice; experiment: Serum ALT and AST activities; type: in vivo; details: for Serum ALT activity / Serum AST activity: individual mice
Method: (§1) Male C57BL/6N mice (8 wk of age) were purchased from Beijing Vital River Laboratory Inc. and acclimated to the environment for 2 wk before they were used for experiments. The environment was maintained at 22°C, in a 12-h light/dark cycle with 50%–60% relative humidity and fed standard chow diets. Because the male mice are more sensitive to metabolic disease than female mice and the estrous cycle of female mice may induce variability to the metabolic phenotypes,[50] only male mice were used in this study. Animals were randomly assigned to control or TPHP treatment groups (five mice per group). Mice were exposed to corn oil (control) purchased from Sigma-Aldrich (C8267) or TPHP (dissolved in corn oil) at 10mg/kg or 50mg/kg body weight (BW) by daily oral gavage for 35 d. The administered volume was 5mL/kg BW. The TPHP corn oil solutions for administration were prepared by dissolving the TPHP in corn oil, and the solutions were stored at −20°C and freshly prepared each week. BW was measured every other day during the dosing period. At the end of experiments, the mice were anesthetized with isoflurane, then blood was collected from the retro-orbital sinus via orbital puncture, and then the mice were euthanized by cervical dislocation. The liver was isolated, weighted, and divided into three fractions: one fraction was fixed with 4% neutral-buffered formalin for Oil Red staining; another fraction was frozen in liquid nitrogen and stored at −80°C for the BA targeted analysis, lipidomic analysis, and qPCR analysis; the remaining fraction was embedded with 3% carboxymethylcellulose (CMC) for MSI analysis. The ileum was also isolated, weighted, and stored at −80°C for the BA targeted analysis and qRT-PCR analysis. Cecal contents were collected from the cecum of mice for the 16S rRNA gene sequencing analysis. Animal study protocols were approved by the Animal Care and Use Committee of Peking University (approval number: Urban-WanY-1).
Blood samples collected from the mice were incubated in a 37°C water bath for 30 min and then incubated under 4°C for 5 h. After centrifuged at 5,000×g and 4°C for 5 min, the serums were aliquoted and stored at −80°C . The determination of serum alanine transaminase (ALT) and aspartate transaminase (AST) activities in the serum were determined using the commercial kits (E2021, E2023; Applygen).

[2] = Body weight during exposure; type: in vivo, C57BL/6N mice; details: for Relative body weight / Body weight: individual mice
Method: as §1

[3] = tested on: FXR target genes (SHP, NTCP, CYP7A1) in HepG2 cells; experiment: qPCR of FXR target genes in HepG2 cells; type: cell-based, human
[4] = biological target: T1, human FXR-LBD (6His-FXR-LBD) (Homo sapiens, UniProt Q96RI1); experiment: Surface plasmon resonance (SPR) analysis; type: binding
T1 construct: human FXR (residues 243–472) was expressed and purified as an amino-terminal 6His fusion protein; made in house; host or cells: E. coli BL21(DE3)
T1 sequence (Q96RI1 243-472 isoform Q96RI1-2): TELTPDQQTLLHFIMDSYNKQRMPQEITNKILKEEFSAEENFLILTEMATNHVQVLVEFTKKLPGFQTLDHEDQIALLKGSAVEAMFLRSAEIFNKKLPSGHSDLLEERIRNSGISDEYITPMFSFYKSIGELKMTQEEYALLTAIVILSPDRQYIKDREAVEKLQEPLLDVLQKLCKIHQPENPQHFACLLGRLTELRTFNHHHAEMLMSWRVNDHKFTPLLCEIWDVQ
Method: . First, 40μg/mL purified 6His-FXR-LBD protein was immobilized on a CM5 sensor chip (29149603; Cytiva) by amine coupling reaction. In detail, the carboxymethyl dextran surface of the CM5 sensor chip was activated by injecting a 1:1 mixture of 0.4M 1-ethyl-3-(3-dimethylaminopropyl)-carbodiimide (EDC) and 0.1M N-hydroxysuccinimide (NHS) for 7 min, then the 6His-FXR-LBD protein was injected and immobilized on the activated surface for 5 min, and subsequently the excess activated groups on the surface were deactivated by 1.0M ethanolamine (pH 8.5). Then, seven different concentrations of compounds (including 3.125μM , 6.25μM , 12.5μM , 25μM , 50μM , 100μM , and 200μM ) were prepared with HBS-EP buffer [ 10 mM HEPES, 150 mM NaCl, 3 mM EDTA, 0.005% (v/v) surfactant P20, pH 7.4], and the final DMSO concentration was adjusted to 2%. The samples were injected into the chip at a flow rate of 30μL/min for 60 s, followed by dissociation for 120 s at 25°C. One of the flow cells on the chip without FXR-LBD protein was used as a negative control. The responses were recorded during the experiment, and the sensorgrams were obtained by subtracting the binding response of the negative control. The equilibrium dissociation constant (KD) was determined by steady-state fitting mode with Biacore T200 Evaluation Software (version 3.2; Cytiva).

[5] = TPHP-H: 50 mg/kg daily oral gavage 35 d
[6] = TPHP-L: 10 mg/kg daily oral gavage 35 d
[7] = 10 μM TPHP + 50 μM CDCA, replicates

O=P(Oc1ccccc1)(Oc1ccccc1)Oc1ccccc1 [TPHP, triphenyl phosphate]
Serum ALT vs control group (in words) ([1]; TPHP exposure groups): significantly higher | Serum AST vs control group (in words) ([1]; TPHP exposure groups): higher | Serum ALT activity [1, 5]: 14.85 and 21.35 and 16.29 | Serum AST activity [1, 5]: 72.41 and 61.71 and 102.89 | Serum ALT activity [1, 6]: 15.83 and 17.21 and 25.56 | Serum AST activity [1, 6]: 84.28 and 74.46 and 60.21 | Body weight vs control group (in words) ([2]; TPHP-L and TPHP-H groups, last week of 35 d exposure): significantly high BW | Relative body weight ([2]; day0, TPHP-H group): 100% | Relative body weight ([2]; day0, TPHP-L group): 100% | Relative body weight ([2]; day2, TPHP-H group): 100.00% and 95.33% and 100.77% and 93.99% and 94.87% | Relative body weight ([2]; day2, TPHP-L group): 100.70% and 96.31% and 97.06% and 97.18% and 97.32% | Relative body weight ([2]; day4, TPHP-H group): 97.19% and 93.33% and 101.54% and 92.93% and 92.67% | Relative body weight ([2]; day4, TPHP-L group): 97.89% and 93.62% and 95.96% and 97.58% and 94.25% | Relative body weight ([2]; day6, TPHP-H group): 97.59% and 92.00% and 101.92% and 90.46% and 91.58% | Relative body weight ([2]; day6, TPHP-L group): 98.24% and 94.30% and 94.12% and 97.18% and 94.25% | Relative body weight ([2]; day8, TPHP-H group): 98.39% and 93.00% and 103.85% and 92.23% and 93.41% | Relative body weight ([2]; day8, TPHP-L group): 98.59% and 94.30% and 95.59% and 96.37% and 95.40% | Relative body weight ([2]; day10, TPHP-H group): 98.39% and 92.67% (2×) and 103.85% and 90.46% | Relative body weight ([2]; day10, TPHP-L group): 98.24% and 94.30% and 95.59% and 95.97% and 94.25% | Body weight ([2]; day12, TPHP-H group): 24.8 g and 28.9 g and 27.4 g and 26.1 g (2×) | Relative body weight ([2]; day12, TPHP-H group): 99.60% and 96.33% and 105.38% and 92.23% and 95.60% | Body weight ([2]; day12, TPHP-L group): 28.0 g and 28.2 g and 26.3 g and 24.2 g and 24.9 g | Relative body weight ([2]; day12, TPHP-L group): 98.59% and 94.63% and 96.69% and 97.58% and 95.40% | Body weight ([2]; day14, TPHP-H group): 24.9 g and 29.3 g and 27.7 g and 25.9 g and 26.3 g | Relative body weight ([2]; day14, TPHP-H group): 100.00% and 97.67% and 106.54% and 91.52% and 96.34% | Body weight ([2]; day14, TPHP-L group): 28.7 g and 28.5 g and 26.4 g and 23.8 g and 25.1 g | Relative body weight ([2]; day14, TPHP-L group): 101.06% and 95.64% and 97.06% and 95.97% and 96.17% | Body weight ([2]; day16, TPHP-H group): 25.2 g and 29.6 g and 28.2 g and 26.6 g and 26.7 g | Relative body weight ([2]; day16, TPHP-H group): 101.20% and 98.67% and 108.46% and 93.99% and 97.80% | Body weight ([2]; day16, TPHP-L group): 28.9 g (2×) and 27.2 g and 24.0 g and 25.4 g | Relative body weight ([2]; day16, TPHP-L group): 101.76% and 96.98% and 100.00% and 96.77% and 97.32% | Body weight ([2]; day18, TPHP-H group): 25.6 g and 30.6 g and 28.3 g and 26.9 g and 27.4 g | Relative body weight ([2]; day18, TPHP-H group): 102.81% and 102.00% and 108.85% and 95.05% and 100.37% | Body weight ([2]; day18, TPHP-L group): 29.0 g and 29.3 g and 27.4 g and 24.4 g and 25.6 g | Relative body weight ([2]; day18, TPHP-L group): 102.11% and 98.32% and 100.74% and 98.39% and 98.08% | Body weight ([2]; day20, TPHP-H group): 25.6 g and 30.4 g and 28.2 g and 27.6 g (2×) | Body weight ([2]; day20, TPHP-L group): 29.6 g and 30.1 g and 27.7 g and 25.0 g and 26.0 g | Body weight ([2]; day22, TPHP-H group): 25.7 g and 30.4 g and 27.7 g and 27.6 g and 28.0 g | Body weight ([2]; day22, TPHP-L group): 29.5 g and 29.1 g and 27.8 g and 25.2 g and 26.1 g | Body weight ([2]; day24, TPHP-H group): 26.2 g and 30.9 g and 27.9 g and 28.0 g and 28.4 g | Body weight ([2]; day24, TPHP-L group): 29.9 g and 30.1 g and 28.1 g and 25.1 g and 26.4 g | Body weight ([2]; day26, TPHP-H group): 26.8 g and 31.6 g and 28.0 g and 27.8 g and 28.5 g | Body weight ([2]; day26, TPHP-L group): 30.2 g and 31.0 g and 28.7 g and 25.9 g and 26.7 g | Body weight ([2]; day28, TPHP-H group): 27.0 g and 31.6 g and 27.9 g and 28.1 g and 28.9 g | Body weight ([2]; day28, TPHP-L group): 30.1 g and 31.3 g and 28.7 g and 25.4 g and 26.8 g | Body weight ([2]; day30, TPHP-H group): 27.3 g and 32.3 g and 28.7 g and 28.3 g and 29.8 g | Body weight ([2]; day30, TPHP-L group): 29.9 g and 31.6 g and 29.4 g and 26.2 g and 27.1 g | Effect on CDCA-induced expression changes of FXR target genes (SHP, NTCP, CYP7A1), in words [3]: attenuated the CDCA-induced expression changes | Relative mRNA expression level of CYP7A1 [3, 7]: 1.85 fold changes and 1.10 fold changes and 1.48 fold changes | Relative mRNA expression level of NTCP [3, 7]: 1.11 fold changes and 0.92 fold changes and 0.94 fold changes | Relative mRNA expression level of SHP [3, 7]: 1.02 fold changes and 1.19 fold changes and 1.08 fold changes | Response (RU) ([4]; 3.13 μM TPHP): 1.43 RU | Response (RU) ([4]; 6.25 μM TPHP): 1.99 RU | Response (RU) ([4]; 12.5 μM TPHP): 3.33 RU | Response (RU) ([4]; 25 μM TPHP): 6.18 RU | Response (RU) ([4]; 50 μM TPHP): 11.56 RU | Response (RU) ([4]; 100 μM TPHP): 20.62 RU | Response (RU) ([4]; 200 μM TPHP): 25.20 RU
